This assay has as its target Saccharomyces cerevisiae α-glucosidase (Saccharomyces cerevisiae, UniProt P53341). The assay is described as follows: Inhibition kinetic of α-glucosidase (Lineweaver–Burk and Michaelis–Menten fits). In kind it is biochemical. The method, then: The data were fitted into both the Lineweaver–Burk and the Michaelis–Menten equation to determine the inhibition mode of the α-glucosidase for each of the COS mixtures.
The kinetic parameters, i.e., KM, Vmax, and the kinetic constants (Ki and Kii), were determined by fitting the data into the Michaelis–Menten equation [40] using the GraphPad Prism 8.0 software programs (GraphPad Inc., La Jolla, CA, USA) for Windows. The Michaelis–Menten equation, which expresses a relationship between the substrate concentration and the reaction velocity is given as follows:(3) V=Vmax [S]/ KM(1+[I]/Ki)+[S](1+[I]/Kii) where Ki represents the kinetic binding constants of the free enzymes, Kii represents the kinetic binding constant of the enzyme–substrate complex, V represents the velocity, Vmax represents the maximum velocity, KM represents the Michaelis’ constant, [S] represents the substrate concentration, and [I] represents the inhibitor concentration. The α values were calculated to determine the inhibition modes and the inhibitor binding preference.

Sequence of Saccharomyces cerevisiae α-glucosidase (P53341 whole entry): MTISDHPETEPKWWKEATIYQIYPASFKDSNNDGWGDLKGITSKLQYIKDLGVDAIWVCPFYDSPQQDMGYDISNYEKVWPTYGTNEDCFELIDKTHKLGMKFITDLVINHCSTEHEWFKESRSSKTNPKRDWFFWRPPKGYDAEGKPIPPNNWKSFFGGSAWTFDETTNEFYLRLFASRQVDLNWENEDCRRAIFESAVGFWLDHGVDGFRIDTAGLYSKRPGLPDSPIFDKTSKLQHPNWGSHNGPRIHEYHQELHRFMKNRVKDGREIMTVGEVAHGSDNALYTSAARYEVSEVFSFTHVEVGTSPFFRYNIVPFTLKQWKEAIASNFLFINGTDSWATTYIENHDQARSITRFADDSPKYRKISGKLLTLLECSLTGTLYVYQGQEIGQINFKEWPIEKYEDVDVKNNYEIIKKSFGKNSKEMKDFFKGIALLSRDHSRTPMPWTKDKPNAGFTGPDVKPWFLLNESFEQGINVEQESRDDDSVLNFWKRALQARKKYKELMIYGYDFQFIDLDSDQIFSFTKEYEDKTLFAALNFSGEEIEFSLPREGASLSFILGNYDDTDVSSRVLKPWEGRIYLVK

As to `C[C@H]1O[C@H](O[C@H]2[C@H](O)[C@@H](O)[C@@H](O[C@H]3[C@H](O)[C@@H](O)C(O)O[C@@H]3CO)O[C@@H]2CO)[C@H](O)[C@@H](O)[C@@H]1N[C@H]1C=C(CO)[C@@H](O)[C@H](O)[C@H]1O` (some centres unmarked) [Acarbose, acarbose], the “Type of Inhibition” value is given as “Competitive” and the “α value from mixed-mode inhibition” value is 1.86.

The record behind these values is paper PMC9740910, “Influence of Degree of Polymerization of Low-Molecular-Weight Chitosan Oligosaccharides on the α-Glucosidase Inhibition” (Molecules, 2022).
